From patent EP4108244A1, “SS-LACTAM ANTIBIOTIC WITH SIGNIFICANT ACTIVITY AGAINST CANCER E.G. COLON MALIGNANCIES” (priority 2021, dated 2022)
Values joined by “and” are separate entries in the source; they are usually repeats but may differ in a detail not shown here. Equal values may be shown once. Marks after values point to notes of the source that are not given here.

Key:
RAW 264.7 cells = experiment: MTT metabolic activity assay on macrophages; assay type: cell-based, murine
Procedure: (§1) Cells were plated at 2^∗104cells/ml in 96-well plates and incubated overnight. The following day, cells were treated in triplicate with Ceftazdime or 5-fluorouracil for 24-48 h, depending on the cell line used. Metabolic activity of the cells was studied using the MTT assay that measures the ability of metabolically active cells to convert tetrazolium salt into a blue formazan product, the absorbance of which is recorded at 540 nm by an ELISA reader (Bio-Rad iMark Microplate Reader).

DLD-1 cells [1] = experiment: MTT metabolic activity assay; assay type: cell-based, human
Procedure: MTT assay was used to assess the proliferation rate of HCT-116 and DLD-1 cells. In this assay the ability of metabolically active cells to convert tetrazolium salt into a blue formazan product is measured. The absorption of the dissolved formazan was quantified at 540 nm by an ELISA reader (Bio-Rad iMark Microplate Reader).
Cells were plated at 2^∗104cells/ml in 96-well plates and incubated overnight. […] Metabolic activity of the cells was studied using the MTT assay that measures the ability of metabolically active cells to convert tetrazolium salt into a blue formazan product, the absorbance of which is recorded at 540 nm by an ELISA reader (Bio-Rad iMark Microplate Reader).

[2] = Stability in media, LC-MS/MS; assay type: physicochemical; settings: antibiotic alone (CFP 50 µg/mL, CFT 100 µg/mL)
Procedure: B) CFT (100 µg/ml) ± 5-FU (8 µM and 16 µM). P value (a) (between antibiotic alone and 5-FU (8 µM)); P value (b) (between antibiotic alone and 5-FU (16 µM)), n = 3.

DLD-1 cells [3] = experiment: Caspase-3/7 activity assay; assay type: cell-based, human; settings: CFT 100 µg/ml alone, vs. control untreated cells
Procedure: Caspase-3/7 activity was measured 48 h and 72 h post-treatment according to the manufacturer's protocol (Caspase-Glo-3/7 Assay, Promega Corp, Madison, WI, USA). Briefly, equal volume from treated cells and caspase-3/7 mixture were incubated at room temperature for 3 h and the luminescence was measured by a microplate reader.
DLD-1 cells were treated with CFT (100 µg/ml) or 5-Fluorouracil (16 µM). Caspase-3/7 activity was measured 48 h and 72 h post-treatment according to the manufacturer's protocol (Caspase-Glo-3/7 Assay, Promega Corp, Madison, WI, USA). Briefly, equal volume from treated cells and caspase 3/7 mixture were incubated at room temperature for 3 h and the luminescence was measured by a microplate reader.

[4] = Body weight and survival in the xenograft model; assay type: in vivo, NOD/SCID mice
Procedure: (§2) Twelve NOD/SCID mice were randomly distributed into two groups (6 mice/group). HCT-116 colon cancer cells (3.5 million) suspended in sterile physiological solution (0.9% NaCl) were injected subcutaneously into the flank of 4 to 6-week old mice. Animals were kept in a light- and temperature-controlled environment and provided with food and water ad libitum. The tumor size was monitored and determined three times per week using a sterile Vernier caliper. Tumor volume was calculated by the following formula: Volume=π/6^∗(length × width × height). Once the tumor size reached seven mm^3, mice were treated three times per week for 21 days with intraperitoneal injections of vehicle (control group) or ceftazidime (10 mg/mouse). Growth delay was assessed by comparing the size of tumors in treated animals to those of control animals. Ethical approval was obtained before the beginning of the experiments.

HCT-116 cells [5] = experiment: MTT metabolic activity assay; assay type: cell-based, human; settings: 48 h post-treatment, CFT 100 µg/mL, CFP 50 µg/mL combined with 5-FU
HCT-116 cells [6] = experiment: Xenograft model of colon cancer cells, tumor growth; assay type: in vivo, NOD/SCID mice
Procedure: as §2, with “Once the tumor size reached seven mm^3, mice were treated three times per week for 21 days with intraperitoneal injections of vehicle (control group) or ceftazidime (10 mg/mouse).” left out

HCT-116 cells [7] = experiment: Cell cycle distribution, propidium iodide staining; assay type: cell-based, human; settings: CFT 100 µg/mL, CFP 50 µg/mL, 5-FU 8 µM, alone or combined, mean ± SE
Procedure: Propidium iodide (PI) staining was used to evaluate the effect of the different treatments on the cell cycle. […] Fixed cells, which were washed with PBS and incubated at 37 °C for 1 h with 50 µl RNase (1 mg/ml) (Sigma Aldrich, Germany), were stained for 15 minutes with PI (Molecular Probes, Eugene, Oregon, USA).

Caco-2 cells = experiment: MTT metabolic activity assay; assay type: cell-based, human; settings: 24 h post-treatment, 5-Fluorouracil 4µM
Procedure: as §1

[8] = three weeks post-treatment, 10mg/mouse intraperitoneal three times per week

Structure (SMILES): CC(C)(O/N=C(\C(=O)N[C@@H]1C(=O)N2C(C(=O)[O-])=C(C[n+]3ccccc3)CS[C@H]12)c1csc(N)n1)C(=O)O [CFT, (6R,7R)-7-[[(2Z)-2-(2-amino-1,3-thiazol-4-yl)-2-(2-carboxypropan-2-yloxyimino)acetyl]amino]-8-oxo-3-(pyridin-1-ium-1-ylmethyl)-5-thia-1-azabicyclo[4.2.0]oct-2-ene-2-carboxylate]
- metabolic activity of macrophages (in words) (RAW 264.7 cells): restored to control untreated cells
- inhibitory effect vs. control untreated cells (metabolic activity) (DLD-1 cells [1]; 48 h post-treatment, 5-Fluorouracil 16µM): 18%
- metabolic activity (in words) (DLD-1 cells [1]; CFT alone (100 µg/ml), 72 h post-treatment): significant decrease in the metabolic activity
- Stability test, level in media ([2]; 2h in media): 104.4 ± 2.5
- Stability test, level in media ([2]; 8h in media): 103.4 ± 10.8
- increase of the activity of caspase 3/7 (DLD-1 cells [3]; 48 h): 20%
- increase of the activity of caspase 3/7 (DLD-1 cells [3]; 72 h): 32.1%
- weight lost ([4]; after three weeks of treatment): 6.8%
- body weight ([4]; after three weeks of treatment, 10 mg/mouse): 19.8 g
- average weight of the mice ([4]; day of the first treatment): 21.3 g
- mortality (in words) ([4]; three weeks of treatment): none of the animals died
- protective effect on body weight ([4]; vs. control animals, three weeks): 58%
- effect on 5-FU's effect on metabolic activity (in words) (HCT-116 cells [5]): antagonized 5-FU's effect
- tumor growth after stopping treatment (in words) (HCT-116 cells [6]; mice exposed for three weeks, then treatment stopped): the tumor did not grow further
- inhibition of tumor volume vs. control group (HCT-116 cells [6]; [8]): 95%
- tumor size (volume of xenografts) (HCT-116 cells [6]; [8]): 45.3 mm^3
- inhibition of tumor volume, already established tumors (HCT-116 cells [6]; treatment started when tumor volume was around 990 mm^3, vs. control untreated mice): around 50%
- percentage of cells in G2/M (HCT-116 cells [7]; 48 h): 24.4 ± 1.2%
- percentage of cells in Pre G1 (HCT-116 cells [7]; 48 h): 6.4 ± 2.3^(a) %
- percentage of cells in S (HCT-116 cells [7]; 48 h): 12.8 ± 2.9%
- percentage of cells in G0/G1 (HCT-116 cells [7]; 72 h): 56.9 ± 1.3^(a) %
- percentage of cells in G2/M (HCT-116 cells [7]; 72 h): 24.3 ± 0.5^(a) %
- percentage of cells in Pre G1 (HCT-116 cells [7]; 72 h): 9.8% and 9.8 ± 0.9^(a) %
- percentage of cells in S (HCT-116 cells [7]; 72 h): 6.6 ± 1.0%
- inhibition of proliferation (metabolic activity) (Caco-2 cells): 30%
